# Assay results taken from PubChem BioAssay AID220 (DTP/NCI, 2004).
# Values joined by “and” are separate entries in the source; they are usually repeats but may differ in a detail not shown here. Equal entries are not always repeated. Inconclusive results are not listed.
# Tested on: CD8F1 mice, subcutaneous mammary adenocarcinoma, T/C%
# Test: NCI In Vivo Anticancer Drug Screen. Data for tumor model Mammary Adenocarcinoma CD8F1 (subcutaneous) in CD8F1
# Details: higher = larger tumour
# In short: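 Antitumor activity is assessed in transplantable-tumor mice by comparing the treated group with a vehicle-treated control group. Survival or tumor size serves as the measure, reported as T divided by C.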
# [1] = endpoint: median tumor weight (est.), dose: 6.25 mg/kg/injection, schedule: Q07DX005 (ip), vehicle: saline
# [2] = endpoint: median tumor weight (est.), dose: 25.0 mg/kg/injection, schedule: Q07DX005 (ip), vehicle: saline
# [3] = endpoint: median tumor weight (est.), dose: 50.0 mg/kg/injection, schedule: Q07DX005 (ip), vehicle: saline
# [4] = endpoint: median tumor weight (est.), dose: 100.0 mg/kg/injection, schedule: Q07DX005 (ip), vehicle: saline
# [5] = endpoint: median tumor weight change, dose: 0.5 mg/kg/injection, schedule: Q01DX001 (ip), vehicle: Klucel (hydroxypropylcellulose) (HPC)
structure (smiles),measurement,setting,value
CC(=O)C1=C(O)C2(O)C(=O)c3c(c(C)c4ccc(C)c(O)c4c3O)CC2C(N)C1=O (stereo not drawn),T/C,"endpoint: median tumor weight change, dose: 37.5 mg/kg/injection, schedule: Q01DX001 (ip), vehicle: saline + alcohol",72 % of control
same,T/C,"endpoint: median tumor weight change, dose: 38.0 mg/kg/injection, schedule: Q01DX001 (ip), vehicle: saline + alcohol",100 % of control
same,T/C,"endpoint: median tumor weight change, dose: 75.0 mg/kg/injection, schedule: Q01DX001 (ip), vehicle: saline + alcohol",46 % of control and 60 % of control
same,T/C,"endpoint: median tumor weight change, dose: 150.0 mg/kg/injection, schedule: Q01DX001 (ip), vehicle: saline + alcohol",49 % of control
C1CC[N-]CC1.C1CC[N-]CC1.C1CC[N-]CC1.[Cl][Rh]([Cl])[Cl],T/C,[1],112 % of control
same,T/C,"endpoint: median tumor weight (est.), dose: 8.0 mg/kg/injection, schedule: Q07DX005 (ip), vehicle: saline",118 % of control
same,T/C,"endpoint: median tumor weight (est.), dose: 12.5 mg/kg/injection, schedule: Q07DX005 (ip), vehicle: saline",100 % of control
same,T/C,[2],73 % of control
same,T/C,"endpoint: median tumor weight (est.), dose: 32.0 mg/kg/injection, schedule: Q07DX005 (ip), vehicle: saline",61 % of control
same,T/C,[3],84 % of control
same,T/C,"endpoint: median tumor weight (est.), dose: 64.0 mg/kg/injection, schedule: Q07DX005 (ip), vehicle: saline",47 % of control
same,T/C,[4],45 % of control
O=C(O)CC(=O)O.[NH-]CC[NH-].[Pt+2],T/C,"endpoint: median tumor weight (est.), dose: 14.06 mg/kg/injection, schedule: Q07DX005 (ip), vehicle: dextrose",14 % of control
same,T/C,"endpoint: median tumor weight (est.), dose: 28.13 mg/kg/injection, schedule: Q07DX005 (ip), vehicle: dextrose",25 % of control
same,T/C,"endpoint: median tumor weight (est.), dose: 56.25 mg/kg/injection, schedule: Q07DX005 (ip), vehicle: dextrose",14 % of control
same,T/C,"endpoint: median tumor weight (est.), dose: 112.5 mg/kg/injection, schedule: Q07DX005 (ip), vehicle: dextrose",13 % of control
same,T/C,"endpoint: median tumor weight (est.), dose: 225.0 mg/kg/injection, schedule: Q07DX005 (ip), vehicle: dextrose",3 % of control
CCS/C(SC)=C(/c1ccccc1)[P+](c1ccccc1)(c1ccccc1)c1ccccc1,T/C,[5],159 % of control
same,T/C,"endpoint: median tumor weight change, dose: 1.0 mg/kg/injection, schedule: Q01DX001 (ip), vehicle: Klucel (hydroxypropylcellulose) (HPC)",100 % of control
same,T/C,"endpoint: median tumor weight change, dose: 2.0 mg/kg/injection, schedule: Q01DX001 (ip), vehicle: Klucel (hydroxypropylcellulose) (HPC)",114 % of control
same,T/C,"endpoint: median tumor weight change, dose: 4.0 mg/kg/injection, schedule: Q01DX001 (ip), vehicle: Klucel (hydroxypropylcellulose) (HPC)",81 % of control
same,T/C,"endpoint: median tumor weight change, dose: 8.0 mg/kg/injection, schedule: Q01DX001 (ip), vehicle: Klucel (hydroxypropylcellulose) (HPC)",43 % of control
CC1(O)CC23CC(O)C4(O)C(CC(O)C4(C)C)C(C)(O)C2CCC1C3O (stereo not drawn),T/C,"endpoint: median tumor weight change, dose: 0.25 mg/kg/injection, schedule: Q01DX001 (ip), vehicle: Klucel (hydroxypropylcellulose) (HPC)",39 % of control
same,T/C,[5],73 % of control
CC(/C=C/c1ccccc1)=Nc1ccccc1,T/C,"endpoint: median tumor weight change, dose: 125.0 mg/kg/injection, schedule: Q01DX001 (ip), vehicle: saline with Tween-80",107 % of control
same,T/C,"endpoint: median tumor weight change, dose: 250.0 mg/kg/injection, schedule: Q01DX001 (ip), vehicle: saline with Tween-80",97 % of control
same,T/C,"endpoint: median tumor weight change, dose: 500.0 mg/kg/injection, schedule: Q01DX001 (ip), vehicle: saline with Tween-80",99 % of control
O=c1[nH]c2c(ccc3cnccc32)c2c1CCC2,T/C,[1],119 % of control
same,T/C,"endpoint: median tumor weight (est.), dose: 12.5 mg/kg/injection, schedule: Q07DX005 (ip), vehicle: suspension in saline",80 % of control
same,T/C,[2],162 % of control
same,T/C,"endpoint: median tumor weight (est.), dose: 25.0 mg/kg/injection, schedule: Q07DX005 (ip), vehicle: suspension in saline",80 % of control
same,T/C,[3],114 % of control
same,T/C,"endpoint: median tumor weight (est.), dose: 50.0 mg/kg/injection, schedule: Q07DX005 (ip), vehicle: suspension in saline",59 % of control
same,T/C,[4],164 % of control
same,T/C,"endpoint: median tumor weight (est.), dose: 100.0 mg/kg/injection, schedule: Q07DX005 (ip), vehicle: suspension in saline",77 % of control
CC(=O)[C@]1(O)Cc2c(O)c3c(c(O)c2[C@@H](OC2CC(N)C(O)C(C)O2)C1)C(=O)c1c(O)cccc1C3=O (stereo partly drawn),T/C,"endpoint: median tumor weight (est.), dose: 0.6 mg/kg/injection, schedule: Q07DX005 (ip), vehicle: water",96 % of control
CONc1ccn(C2OC(CO)C(O)C2O)c(=O)n1 (stereo not drawn),T/C,"endpoint: median tumor weight change, dose: 125.0 mg/kg/injection, schedule: Q01DX001 (ip), vehicle: saline",87 % of control
same,T/C,"endpoint: median tumor weight change, dose: 250.0 mg/kg/injection, schedule: Q01DX001 (ip), vehicle: saline",103 % of control
